According to patent US20210196714A1, “COMPOSITIONS AND METHODS FOR TREATING DISORDERS CHARACTERIZED WITH ABERRANT RAS/MAPK SIGNALING” (Duke University, priority 2018, published 2021):
“Also recorded” adds a separate entry of the source.

Key:
[1] = Solubility test in egg water; type: physicochemical; conditions: DMSO stock diluted in water (100×)
Method: To guard against possible bias, the tool and negative control compounds were interspersed across the experiment and the zebrafish phenotyping team was blinded to the identity of each compound. Typical of small molecule storage, each of the 29 compounds was dissolved in dimethyl sulfoxide (DMSO). Therefore, such compounds were first diluted in water (100×) and its solubility tested in egg water; three compounds were insoluble and were thus removed from further testing (see, FIG. 1A). Next, each compound was diluted serially with egg water and toxicity tested by assaying the percentage of abnormal or dead embryos across three different concentrations (10 μM, 1 μM, 100 nM; FIG. 1B).

[2] = tested on: kmt2d CRISPR mosaic mutants (F0); assay: Jaw defects in kmt2d-CRISPR F0 mutants; type: in vivo, zebrafish; conditions: kmt2d-CRISPR F0, 100 nM, 5 dpf; listed as dmDf
Description: Prior and current genetic zebrafish models of KS focused on the newly discovered rap1a/rap1b genes. However, from the perspective of clinical utility, dmDf should be efficacious in kmt2d mutants, since loss of function mutations of the human ortholog account for as much as 75% of KS (see, Ng, S. B. et al. Nat Genet 42, 790-3 (2010); Li, Y. et al. Hum Genet 130, 715-24 (2011); Lu, J., Mo, G., Ling, Y. & Ji, L. Mol Med Rep 14, 3641-5 (2016); Miyake, N. et al. Am J Med Genet A 161a, 2234-43 (2013)). Therefore, experiments supplemented the testing tools by creating a kmt2d CRISPR/Cas9 mutant. A guide RNA targeting exon 4 of kmt2d induced efficient (˜99%) Cas9-mediated genome editing (FIG. 8). […]
For convergence and extension (CE) phenotyping, embryos were scored as described (see, Leitch, C. C. et al. Nat Genet 40, 443-8 (2008)) at the 8-10 somite stage, and images were captured using an AZ100 microscope and NIS Elements software (Nikon). […] The distance between Meckel's (MK) and ceratohyal (CH) cartilages was measured on ventral bright field images with Image J (NIH). […] Fluorescence signal on embryo heads was imaged with the Nikon AZ100 microscope and DS-Qi1MC digital camera using […] Z-stacks to generate extended depth of focus images. Cell numbers were quantified using the ImageJ ICTN plugin (NIH). […]

Question: For `CC(C)c1nc(-c2cccc(NS(=O)(=O)c3c(F)cccc3F)c2F)c(-c2ccnc(N)n2)s1` [Compound 8, desmethyl-Dabrafenib], which “solubility tested in egg water” value [1] is on record?
Answer: The value was “soluble”.

Question: What about the “jaw defects (MK-CH distance)” value [2] of the same molecule?
Answer: Its value is “ameliorates the jaw defects; also recorded: ameliorated significantly”.
